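1) Cells in 96-well plates. 2) Compound, 48 h, 5 concentrations. 3) Linear interpolation between surrounding doses. 4) Unreached endpoint = highest concentration. GI50: concentration for 50% inhibition of growth.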 Active and inactive are the calls of the source. Rule as the data show it: active = GI50 up to about 1.1 µM and inactive = higher.

We go through 13 compounds from ChEMBL document CHEMBL1201862, “PubChem BioAssay data set” (2004).

Some test systems named below: RXF 393; Malme-3M; M14; SK-OV-3; COLO 205; U-251; 786-0; OVCAR-5; HOP-62; IGROV-1; HT-29; A498; HL-60; HCT-116; LOX IMVI; CAKI-1; MDA-MB-435; Hs-578T; T47D.
What all share (assay): NCI anticancer screen, dose series, 48 h

For the compound `COc1ccc(C(=O)C(c2ccc(OC)cc2)C2(O)C(=O)Nc3c(C)cc(Cl)cc32)cc1` (stereo not drawn), the GI50 is > 100 µM (inactive) with RXF 393; > 100 µM (inactive) in the assay on Malme-3M; 92 µM (inactive) in the assay with M14; > 100 µM (inactive) with SK-OV-3; > 100 µM (inactive) in the assay on COLO 205; 45.2 µM (inactive) with U-251. Also, the GI50 in the assay on 786-0 was > 100 µM (inactive); with OVCAR-5, > 100 µM (inactive); in the assay with HOP-62, > 100 µM (inactive); with IGROV-1 it was 72.8 µM (inactive); in the assay with HT-29 it was 63.5 µM (inactive); with A498, > 100 µM (inactive). Further, the results for the GI50 in the assay on HL-60 and in the assay on HCT-116 were 17.1 µM (inactive) and 70.3 µM (inactive), respectively.

For the compound `O=C(O)CSc1nnc(-c2ccccc2O)[nH]1`, the GI50 with RXF 393, in the assay on Malme-3M, with M14, in the assay with LOX IMVI, in the assay on CAKI-1 and with U-251 was > 100 µM (inactive) each time. Also, the GI50 in the assay with 786-0, in the assay with OVCAR-5, in the assay on IGROV-1, with HT-29, in the assay with A498 and in the assay on HL-60 was > 100 µM (inactive) throughout. Moreover, the GI50 in the assay on HCT-116 was > 100 µM (inactive).

On to `CC1CCC/C1=C(/I)C(=O)c1ccccc1` (stereo not drawn), for which the GI50 was > 100 µM (inactive) in the assay with RXF 393; 64.4 µM (inactive) with Malme-3M; 59.3 µM (inactive) in the assay with M14; > 100 µM (inactive) in the assay on SK-OV-3; 28.9 µM (inactive) in the assay with MDA-MB-435; 9.16 µM (inactive) in the assay on LOX IMVI. Besides, the GI50 in the assay with COLO 205 was > 100 µM (inactive); in the assay with CAKI-1, 2.97 µM (inactive); with U-251 it was > 100 µM (inactive); with 786-0, > 100 µM (inactive); in the assay with OVCAR-5 it was 18.5 µM (inactive); in the assay with HOP-62, > 100 µM (inactive). Further, the GI50 is > 100 µM (inactive) in the assay on Hs-578T; > 100 µM (inactive) in the assay on IGROV-1; 48 µM (inactive) in the assay with HT-29; > 100 µM (inactive) in the assay on T47D; 39.5 µM (inactive) in the assay with HL-60; 36.6 µM (inactive) in the assay on HCT-116.

For the compound `CN(C)/N=N/c1cccc(C(N)=O)c1`, the GI50 in the assay on RXF 393, in the assay on Malme-3M, in the assay on M14, with SK-OV-3, with COLO 205 and with CAKI-1 was > 100 µM (inactive) each time. Besides, the GI50 in the assay on U-251, in the assay with 786-0, in the assay with IGROV-1, in the assay with HT-29, in the assay with A498 and with HL-60 was > 100 µM (inactive) throughout. For the same compound, the GI50 in the assay with HCT-116 was > 100 µM (inactive).

On to `CSC1C=C(C(C)C)CCC1(C)SC` (stereo not drawn), for which the GI50 in the assay on RXF 393 was 15.5 µM (inactive); in the assay with Malme-3M it was 13.3 µM (inactive); with M14, 16.9 µM (inactive); in the assay on SK-OV-3, 21.4 µM (inactive); in the assay on LOX IMVI, 18.3 µM (inactive); in the assay on COLO 205, 16.2 µM (inactive). Moreover, the GI50 with CAKI-1 is 18.3 µM (inactive); in the assay with U-251, 19.5 µM (inactive); in the assay with 786-0, 17.8 µM (inactive); in the assay on OVCAR-5, 16.2 µM (inactive); with HOP-62 it was 19.5 µM (inactive); in the assay on IGROV-1, 20.9 µM (inactive). For the same compound, the GI50 with HT-29 is 15.4 µM (inactive); in the assay with A498, 25.6 µM (inactive); in the assay on HL-60, 2.3 µM (inactive); with HCT-116, 19.2 µM (inactive).

On to `CC1=NN(C(=O)Nc2ccccc2)C(=O)C2CCC(=O)N12` (stereo not drawn), for which the GI50 in the assay on RXF 393, in the assay with M14, in the assay on SK-OV-3, in the assay on LOX IMVI, in the assay on COLO 205 and in the assay with CAKI-1 was > 100 µM (inactive) in each case. Further, the GI50 in the assay with U-251, in the assay with 786-0, with HOP-62, with IGROV-1, with A498 and with HL-60 was > 100 µM (inactive) each time. Further, the GI50 in the assay with HCT-116 was > 100 µM (inactive).

With `c1ccc(SC(Sc2ccccc2)=C2CCC2)cc1`, the GI50 in the assay with RXF 393, in the assay on M14, in the assay on SK-OV-3, with LOX IMVI, in the assay with COLO 205 and in the assay on CAKI-1 was > 100 µM (inactive) each time. Further, the GI50 in the assay on U-251, in the assay with 786-0, with HOP-62, in the assay on A498, in the assay with HL-60 and with HCT-116 was > 100 µM (inactive) in each case.

Regarding `C=CCc1ccc(O)c(-c2cc(C3Oc4c(-c5cc(CC=C)ccc5O)cc(O)cc4[C@@H]3CO)ccc2O)c1` (stereo partly drawn), the GI50 was 21.2 µM (inactive) in the assay on RXF 393; 50.4 µM (inactive) in the assay with Malme-3M; 37.5 µM (inactive) with M14; 42.7 µM (inactive) with SK-OV-3; 16.9 µM (inactive) in the assay with LOX IMVI; 35 µM (inactive) in the assay with COLO 205. The GI50 was 47.3 µM (inactive) with CAKI-1; 25.2 µM (inactive) with U-251; 33.5 µM (inactive) in the assay with 786-0; 56.1 µM (inactive) in the assay with OVCAR-5; 21.4 µM (inactive) in the assay on HOP-62; 20.3 µM (inactive) in the assay with IGROV-1. In addition, the GI50 is 33.3 µM (inactive) in the assay on HT-29, 14.8 µM (inactive) in the assay on A498, 18.5 µM (inactive) with HL-60 and 23.7 µM (inactive) in the assay with HCT-116.

On to `CC1(C)CC(=O)c2c(nc3c(ccc4ccccc43)c2-c2ccc(NC(=O)CCCCC(=O)Nc3ccc(-c4c5c(nc6c4ccc4ccccc46)CC(C)(C)CC5=O)cc3)cc2)C1`, for which the GI50 was 78.3 µM (inactive) in the assay with RXF 393; 32.3 µM (inactive) in the assay with M14; 37.2 µM (inactive) in the assay on SK-OV-3; 26.2 µM (inactive) in the assay with MDA-MB-435; 17.6 µM (inactive) in the assay on LOX IMVI; 26.7 µM (inactive) in the assay on COLO 205. Also, the GI50 with CAKI-1 is 35.3 µM (inactive); in the assay on U-251 it was 28.4 µM (inactive); in the assay on 786-0 it was 42.2 µM (inactive); in the assay on OVCAR-5, 30.9 µM (inactive); in the assay with HOP-62 it was 32.7 µM (inactive); in the assay with Hs-578T it was 32.1 µM (inactive). The GI50 in the assay with IGROV-1 was 14 µM (inactive); with HT-29, 22.5 µM (inactive); in the assay with T47D, 22.6 µM (inactive); in the assay with HL-60 it was 29.6 µM (inactive); in the assay on HCT-116, 23.9 µM (inactive).

`CC(C)O/C=C1\C(=O)C2(SCCS2)[C@H]2CCCC[C@@H]12`: the GI50 with RXF 393 was 21.8 µM (inactive); in the assay with Malme-3M, 32.7 µM (inactive); in the assay with M14 it was 42.6 µM (inactive); with SK-OV-3, 59.7 µM (inactive); with COLO 205, 18.5 µM (inactive); with CAKI-1, 29.2 µM (inactive). Also, the GI50 in the assay on U-251 is 40.5 µM (inactive); in the assay with 786-0 it was 48 µM (inactive); with HOP-62, 38 µM (inactive); in the assay with IGROV-1, 49.7 µM (inactive); with A498, 17.7 µM (inactive); in the assay on HL-60, 24.2 µM (inactive). Also, the GI50 in the assay with HCT-116 was 34.4 µM (inactive).

Regarding `COc1ccc(C(=O)C(CC2C(=O)NC(=O)NC2=O)c2ccc(OC)cc2)cc1` (stereo not drawn), the GI50 with RXF 393, in the assay on Malme-3M, in the assay with M14, in the assay with SK-OV-3, in the assay on LOX IMVI and with COLO 205 was > 100 µM (inactive) in each case. Besides, the GI50 with CAKI-1, with U-251, in the assay with 786-0, in the assay on OVCAR-5, with HOP-62 and in the assay with IGROV-1 was > 100 µM (inactive) in each case. The GI50 in the assay on HT-29, in the assay with A498, in the assay on HL-60 and with HCT-116 was > 100 µM (inactive) throughout.

As for `NC(=O)c1nc(-c2ccc(Cl)c(Cl)c2)nc2ccccc12`, the GI50 was 12.5 µM (inactive) in the assay with RXF 393; 4.92 µM (inactive) with Malme-3M; > 100 µM (inactive) with M14; 12.1 µM (inactive) in the assay with SK-OV-3; > 100 µM (inactive) with LOX IMVI; > 100 µM (inactive) in the assay on COLO 205. Also, the GI50 was > 94.4 µM (inactive) in the assay with CAKI-1; > 28 µM (inactive) with U-251; 3.69 µM (inactive) in the assay with 786-0; > 100 µM (inactive) in the assay on OVCAR-5; > 21.9 µM (inactive) in the assay with HOP-62; > 100 µM (inactive) in the assay with IGROV-1. Further, the GI50 was > 100 µM (inactive) with HT-29, 16.1 µM (inactive) in the assay with A498, > 100 µM (inactive) in the assay on HL-60 and > 19.8 µM (inactive) in the assay on HCT-116.

Take `CC1=CC(=C(c2ccc(N)c(C)c2)c2ccc(N)c(C)c2)C=CC1=N`: the GI50 in the assay with RXF 393 was 5.92 µM (inactive); with Malme-3M, 2.91 µM (inactive); with M14, 4.95 µM (inactive); in the assay with SK-OV-3 it was 4.66 µM (inactive); in the assay on LOX IMVI, 4.2 µM (inactive); in the assay on COLO 205, 1.93 µM (inactive). Also, the GI50 in the assay with CAKI-1 is 15.2 µM (inactive); in the assay with U-251, 0.411 µM (active); in the assay on 786-0 it was 3.11 µM (inactive); in the assay with OVCAR-5 it was 5.42 µM (inactive); with HOP-62, 2.79 µM (inactive); in the assay on IGROV-1 it was 13.4 µM (inactive). Moreover, the GI50 is 3.64 µM (inactive) in the assay with HT-29, 9.16 µM (inactive) in the assay with A498, 3.72 µM (inactive) with HL-60 and 3.37 µM (inactive) in the assay on HCT-116.
